Assay results: PubChem BioAssay AID2842 (Southern Research Institute, 2010)
Converted amounts (≈) assume the structure as drawn.

tested on: M. tuberculosis H37Rv growth inhibition; experiment: Mycobacterium tuberculosis H37Rv growth inhibition, putative kinase inhibitor library, confirmatory dose response (AID 2842);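 further: bacteria incubated one week before Alamar blue readout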

Q: For Cc1ccc(C(=O)Nc2nnc(-c3ccncc3)o2)cc1C, which IC90 is on record?
A: Its IC90 is 26.8 µg/mL (≈ 91 µM).

Q: CSc1cccc2sc(Nc3cccc(Br)c3)nc12 was tested. Which IC90 did it give?
A: The IC90 was 6.73 µg/mL (≈ 19.2 µM).

Q: Which IC90 does the source give for Cc1cc(C)c2nc(C(F)(F)F)nc(NC(C)CCc3ccccc3)c2c1 (configuration not stated) here?
A: Its IC90 is 7.61 µg/mL (≈ 20.4 µM).

Q: With O=C(COc1ccc(Cl)cc1)N1CCN(c2ccc(N3CCCCC3)nn2)CC1 as the compound, how does the IC90 read?
A: The IC90 was 14.3 µg/mL (≈ 34.3 µM).

Q: With COc1cccc2sc(N(CCCn3ccnc3)C(=O)c3ccc4c(c3)OCCO4)nc12 as the compound, how does the IC90 read?
A: The IC90 was 6.56 µg/mL (≈ 14.6 µM).

Q: For Cc1ccccc1C1C=C(c2cccs2)Nc2nc3ccccc3n21 (configuration not stated), which IC90 is on record?
A: Its IC90 is 13.8 µg/mL (≈ 40 µM).

Q: For COc1ccc(-c2noc(-c3cc(C(C)C)[nH]n3)n2)cc1, which IC90 is on record?
A: The IC90 was 12.2 µg/mL (≈ 42.8 µM).

Q: For Cc1c(Cl)ccc2sc(N(CCCn3ccnc3)C(=O)/C=C/c3cccs3)nc12, which IC90 is on record?
A: The IC90 was 0.24 µg/mL (≈ 0.542 µM).

Q: For Cc1cccc(N2CCN(C(=O)CCCCCn3c(=O)[nH]c4ccsc4c3=O)CC2)c1C, which IC90 is on record?
A: The IC90 was 20.9 µg/mL (≈ 46 µM).

Q: How did the IC90 turn out when Cc1cccc(Cn2c(N3CCN(Cc4ccc(Cl)cc4)CC3)nc3c2c(=O)[nH]c(=O)n3C)c1 was run?
A: Its IC90 is 3.15 µg/mL (≈ 6.58 µM).

Q: With COc1cccc2sc(Nc3nc4c(s3)CCCC4)nc12 as the compound, how does the IC90 read?
A: The IC90 was 5.82 µg/mL (≈ 18.3 µM).

Q: O=C(COc1ccccc1)Nc1nnc(-c2cc(Cl)ccc2Cl)o1 was tested. Which IC90 did it give?
A: Its IC90 is 27.8 µg/mL (≈ 76.4 µM).

Q: For CCCCc1ccc2nc(Nc3nc4ccc(S(C)(=O)=O)cc4s3)sc2c1, which IC90 is on record?
A: The IC90 was 31.8 µg/mL (≈ 76.1 µM).

Q: COC(=O)c1c(NC(=O)C(c2ccccc2)c2ccccc2)sc2c1CC(C)(C)NC2(C)C was tested. Which IC90 did it give?
A: The IC90 was 6.07 µg/mL (≈ 13.1 µM).

Q: For COc1ccc(-c2nnc(NC(=O)c3cccc(C)c3)o2)cc1, which IC90 is on record?
A: The IC90 was 87.7 µg/mL (≈ 283 µM).

Q: With COc1cc2c3nnc(-c4ccc(F)cc4)c-3cn(Cc3ccccc3)c2cc1OC as the compound, how does the IC90 read?
A: Its IC90 is 12 µg/mL (≈ 29 µM).

Q: Cc1ccc(C)c(-c2nnc(NC(=O)C3CC3)o2)c1 was tested. Which IC90 did it give?
A: Its IC90 is 1.46 µg/mL (≈ 5.67 µM).

Q: How did the IC90 turn out when Cc1ccc(-c2nnc(NC(=O)c3ccco3)o2)c(C)c1 was run?
A: The IC90 was 4.51 µg/mL (≈ 15.9 µM).

Q: With O=C(OCc1nc2ccccc2s1)c1ccc(F)cc1 as the compound, how does the IC90 read?
A: Its IC90 is 15.4 µg/mL (≈ 53.5 µM).

Q: N#Cc1ccc(C(=O)Nc2nnc(-c3ccc(Br)cc3)o2)cc1 was tested. Which IC90 did it give?
A: Its IC90 is 7.39 µg/mL (≈ 20 µM).

Q: With COc1ccc(OC)c2sc(N(CCCn3ccnc3)C(=O)c3ccco3)nc12 as the compound, how does the IC90 read?
A: The IC90 was 6.7 µg/mL (≈ 16.2 µM).

Q: With CC(=O)CSc1nc2c([nH]c3ccccc32)c(=O)n1-c1cc(C)ccc1C as the compound, how does the IC90 read?
A: The IC90 was 22 µg/mL (≈ 58.2 µM).

Q: Which IC90 does the source give for CC(=O)N1CCc2c(sc(NC(=O)c3cccs3)c2C(N)=O)C1 here?
A: The IC90 was 3.21 µg/mL (≈ 9.19 µM).

Q: With Fc1cccc2sc(Nc3nc4cc5c(cc4s3)OCO5)nc12 as the compound, how does the IC90 read?
A: Its IC90 is 11.1 µg/mL (≈ 32.1 µM).

Q: For COc1cc(OC)cc(C(=O)N(CCCn2ccnc2)c2nc3c(F)cccc3s2)c1, which IC90 is on record?
A: Its IC90 is 20.6 µg/mL (≈ 46.8 µM).

Q: How did the IC90 turn out when COc1cccc2sc(Nc3nc4ccc(S(C)(=O)=O)cc4s3)nc12 was run?
A: Its IC90 is 20.2 µg/mL (≈ 51.7 µM).

Q: With O=C(Nc1nnc(-c2ccc3c(c2)OCCO3)o1)c1ccccc1Oc1ccccc1 as the compound, how does the IC90 read?
A: Its IC90 is 3.77 µg/mL (≈ 9.08 µM).

Q: For O=C(Nc1nc(-c2ccc3c(c2)CCCC3)cs1)c1ccc2c(c1)OCCO2, which IC90 is on record?
A: Its IC90 is 14.5 µg/mL (≈ 36.9 µM).

Q: Which IC90 does the source give for O=C1N/C(=N\N=C\c2ccccc2O)SC1Cc1ccc(Br)cc1 (configuration not stated) here?
A: Its IC90 is 1.14 µg/mL (≈ 2.82 µM).

Q: Which IC90 does the source give for O=C(Nc1ccc(S(=O)(=O)N2CCC(c3nc4ccccc4[nH]3)CC2)cc1)c1cccc(Cl)c1 here?
A: The IC90 was 0.86 µg/mL (≈ 1.74 µM).

Q: Cc1ccc(C)c(-c2nnc(NC(=O)c3ccc(Cl)cc3Cl)o2)c1 was tested. Which IC90 did it give?
A: Its IC90 is 2.21 µg/mL (≈ 6.1 µM).

Q: Which IC90 does the source give for Cc1cccc2sc(N(CCCn3ccnc3)C(=O)c3ccco3)nc12 here?
A: Its IC90 is 0.83 µg/mL (≈ 2.26 µM).

Q: CC(C)C(=O)Nc1nnc(-c2cc(Cl)ccc2Cl)o1 was tested. Which IC90 did it give?
A: The IC90 was 26.9 µg/mL (≈ 89.5 µM).

Q: How did the IC90 turn out when O=C(Nc1nc(-c2ccc3c(c2)OCCO3)cs1)c1cccc(C(F)(F)F)c1 was run?
A: The IC90 was 13.9 µg/mL (≈ 34.3 µM).

Q: Which IC90 does the source give for COC(=O)c1c(NC(=O)c2ccc(C)c(C)c2)sc2c1CCN(C(C)=O)C2 here?
A: The IC90 was 48 µg/mL (≈ 124 µM).

Q: With O=C(c1ccc(F)cc1)N1N=C(c2c(-c3ccccc3)c3cc(Br)ccc3[nH]c2=O)CC1c1ccco1 (configuration not stated) as the compound, how does the IC90 read?
A: Its IC90 is 13.1 µg/mL (≈ 23.5 µM).

Q: CC1(C)Cc2c(sc(NC(=O)c3ccc(Oc4ccccc4)cc3)c2C(N)=O)C(C)(C)N1 was tested. Which IC90 did it give?
A: The IC90 was 6.22 µg/mL (≈ 13.8 µM).

Q: With COc1cccc(Nc2cc(C)nc3c(-c4ccccc4)cnn23)c1 as the compound, how does the IC90 read?
A: Its IC90 is 1.83 µg/mL (≈ 5.54 µM).

Q: Which IC90 does the source give for O=C1NC(=S)NC(=O)C1=Cc1nc(-c2ccccc2Cl)n2ccccc12 here?
A: The IC90 was 10.8 µg/mL (≈ 28.2 µM).

Q: With Nc1c(C(=O)Nc2ccc(Br)cc2)sc2nc3c(c(-c4cccs4)c12)CCCC3 as the compound, how does the IC90 read?
A: The IC90 was 5.12 µg/mL (≈ 10.6 µM).

Q: With O=C(Nc1ncc(Cc2ccc(F)cc2)s1)c1cccc(-n2cnnn2)c1 as the compound, how does the IC90 read?
A: The IC90 was 10.2 µg/mL (≈ 26.7 µM).

Q: How did the IC90 turn out when CC(C)(C)c1ccc(C(=O)Nc2nnc(-c3ccc(S(C)(=O)=O)cc3)o2)cc1 was run?
A: Its IC90 is 24.6 µg/mL (≈ 61.7 µM).

Q: With COc1ccc(O)c(/C=N/NC(=O)c2ccncc2)c1 as the compound, how does the IC90 read?
A: The IC90 was 0.82 µg/mL (≈ 3.02 µM).

Q: CCOC(=O)COc1cccc(/C=C2\Oc3cc(OC)ccc3C2=O)c1 was tested. Which IC90 did it give?
A: The IC90 was 3.52 µg/mL (≈ 9.93 µM).

Q: For COc1ccc(OC)c(NC(=O)c2cc3cc(Cl)ccc3oc2=O)c1, which IC90 is on record?
A: The IC90 was 0.77 µg/mL (≈ 2.14 µM).

Q: With O=C(Nc1nnc(-c2ccccc2Cl)o1)c1nc2ccccc2s1 as the compound, how does the IC90 read?
A: Its IC90 is 1.75 µg/mL (≈ 4.9 µM).

Q: How did the IC90 turn out when O=C(Nc1nnc(-c2cc(Cl)ccc2Cl)o1)c1ccc(S(=O)(=O)N2CCCCC2)cc1 was run?
A: The IC90 was 11.7 µg/mL (≈ 24.3 µM).

Q: O=C(Nc1nnc(-c2ccc(Cl)cc2)o1)c1ccccc1Br was tested. Which IC90 did it give?
A: The IC90 was 2.46 µg/mL (≈ 6.5 µM).

Q: How did the IC90 turn out when CCCCC(=O)Nc1nnc(-c2ccc3c(c2)OCCO3)o1 was run?
A: The IC90 was 9.06 µg/mL (≈ 29.9 µM).

Q: For N#Cc1ccc(C(=O)Nc2nnc(-c3ccc(Cl)cc3)o2)cc1, which IC90 is on record?
A: The IC90 was 56.7 µg/mL (≈ 174 µM).

Q: Which IC90 does the source give for OCc1cn(-c2ccccc2)nc1-c1ccc(F)cc1 here?
A: The IC90 was 6.38 µg/mL (≈ 23.8 µM).

Q: How did the IC90 turn out when CCc1cccc2sc(N(CCCn3ccnc3)C(=O)c3cc(OC)cc(OC)c3)nc12 was run?
A: Its IC90 is 10.7 µg/mL (≈ 23.7 µM).

Q: For Cc1ccc(C(=O)Nc2nnc(-c3ccncc3)o2)cc1, which IC90 is on record?
A: The IC90 was 13.4 µg/mL (≈ 47.7 µM).

Q: For COc1ccc(-c2nsc(SCC(=O)NCc3ccco3)n2)cc1, which IC90 is on record?
A: Its IC90 is less than 0.2 µg/mL.

Q: O=C(Nc1nnc(-c2ccc(Br)cc2)o1)c1cc(Cl)sc1Cl was tested. Which IC90 did it give?
A: The IC90 was 3.43 µg/mL (≈ 8.18 µM).

Q: How did the IC90 turn out when N#Cc1ccccc1NC(=O)C(=O)NCCSc1ncc(-c2ccccc2)[nH]1 was run?
A: The IC90 was 4.48 µg/mL (≈ 11.4 µM).

Q: With Cc1cc2cc(CNC(=O)C(=O)c3c[nH]c4ccccc34)ccc2[nH]1 as the compound, how does the IC90 read?
A: The IC90 was 8.44 µg/mL (≈ 25.5 µM).
